The values that follow come from PubChem BioAssay AID179 (DTP/NCI, 2004).

The assay has as its system CEM cells HIV-1 protection, formazan growth assay. In words: NCI AIDS Antiviral Assay. The settings on record: for pIC50: measured here: growth of uninfected CEM cells. In outline: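 Human CEM cells, uninfected and HIV-1-infected, exposed to five drug concentrations; growth measured by soluble formazan assay and scored as percent protection from infection, with protecting compounds retested.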

pEC50, pIC50: −log10 of the molar value. Where “and” joins values, the source holds several entries; their conditions need not be identical. Identical values can stand only once. Calls of active or inactive are those of the source.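 Rule for the calls: active = compounds giving half or more protection of infected cells from virus-caused growth loss, again on retest; inactive = the rest.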 Where a SMILES comes first, the peptide text is derived from it. [ ]: non-standard residue; d: D form. The star is where a group is joined. ξ: configuration not given here. Trt = c1ccc(C(c2ccccc2)(c2ccccc2)*)cc1; Benzhydryl = c1ccc(C(c2ccccc2)*)cc1; Cbz = O=C(OCc1ccccc1)*; ξD = NC(CC(=O)O)C(=O)O; Ac3c = NC1(C(=O)O)CC1; Boc = CC(C)(C)OC(=O)*; OBn = c1ccc(CO*)cc1; OtBu = CC(C)(C)O*

The term pEC50 denotes −log10 of the EC50, conventionally taken in molar units. In general, pIC50 refers to the negative decadic logarithm of the IC50, by convention in mol/L. Read a low pIC50 as a large IC50.

Regarding `CCN(CC)c1c(C)nnc2c(-c3ccccc3)cnn12`, the pEC50 is less than 4.73 and the pIC50 was less than 4.73.
Turning to `COC(=O)N/N=C(\C(=O)Nc1cccc([N+](=O)[O-])c1)c1nc2ccc([N+](=O)[O-])cc2[nH]c1=O`, the pEC50 was less than 3.83 and the negative-log IC50 (pIC50) was less than 3.83.
For `O=c1oc2ccccc2c(O)c1C(c1ccc(O)cc1)c1c(O)c2ccccc2oc1=O`, the outcome was inactive.
Regarding `CC(C)NC1CCCCC2c3cc(F)ccc3[C@]12O` (some centres undefined), the pEC50 is 4.22 and the pIC50 was less than 3.70.
For `CC(C)(C)OC(=O)CNC(=O)C(Cc1ccccc1)NC(=O)C(CSC(c1ccccc1)(c1ccccc1)c1ccccc1)NC(=O)CNC(=O)C(Cc1ccccc1)NC(=O)CNC(=O)C(CSC(c1ccccc1)c1ccccc1)NC(=O)C(CSC(c1ccccc1)(c1ccccc1)c1ccccc1)NC(=O)OCc1ccccc1` (centres undefined) (Cbz-C(Trt)C(Benzhydryl)GFGC(Trt)FG-OtBu; configuration not given here), in that order: less than 5.08 and less than 5.08.
In the case of `CC(C)(C)NC(=O)CCC1C(C(=O)NC(C)(C)C)C2(Cl)C(Cl)=C(Cl)C1(Cl)C2(Cl)Cl` (centres undefined), the pEC50 was less than 3.70 and the pIC50 is less than 3.70.
In the case of `C=C(C(N)=O)c1ccc([N+](=O)[O-])o1`, the pEC50 is less than 3.70 and the negative logarithm of the IC50 (pIC50) was 5.46.
In the case of `CCCCCCCCCCCCCCCC[N+](C)(C)CCN(Cc1ccc(OC)cc1)c1ncccn1`, the pEC50 was less than 3.70 and the pIC50 was 6.01.
`NCCSSCCN`: the result was active.
Regarding `COc1ccc(/C=C2\N=C(SC)NC2=O)cc1`, the pEC50 was less than 3.70 and the pIC50 was 3.97.
With `CC1(C)CC[P+](CC[P+]2(c3ccccc3)CCC(C)(C)c3ccccc32)(c2ccccc2)c2ccccc21` (centres undefined), the pEC50 is less than 3.39 and the pIC50 is 4.19.
For `Cc1[nH]n(-c2nc(O)c(C)c(=O)[nH]2)c(=O)c1CCO`, in that order: less than 3.70 and less than 3.70.
With `N=C(N)SC(c1ccccc1)C(O)c1ccccc1` (centres undefined), the pEC50 was less than 3.70 and the pIC50 is 4.04.
As to `C=C1C(=O)OC2C1CC[C@H](C)C13OC(=O)CC1[C@@]23C` (some centres undefined), the outcome was inactive.
As to `CNC(=O)O/N=C/c1cccc(/C=N/OC(=O)NC)c1`, the pEC50 was less than 3.70 and the pIC50 is less than 3.70.
In the case of `NC(Cc1ccc(OCc2ccccc2)cc1)C(=O)NC(Cc1ccccc1)C(=O)Oc1c(Cl)c(Cl)c(Cl)c(Cl)c1Cl` (centres undefined), the pEC50 was less than 3.70 and the negative-log IC50 (pIC50) is 4.54.
As to `COC(=O)C1(NC(=O)C(CC(=O)OCc2ccccc2)NC(=O)OC(C)(C)C)CC1` (centres undefined) (Boc-[ξD](OBn)-[Ac3c]-OMe), the pEC50 was less than 3.70 and the pIC50 is less than 3.70.
With `CC(=O)NC(CO)C(=O)NC(Cc1ccc(O)cc1)C(=O)NCC(N)=O` (stereo not drawn) (Ac-Ser-Tyr-Gly-NH2; configuration not given here), the pEC50 is less than 3.70 and the pIC50 is less than 3.70.
As to `CC(=O)c1cc2c3c(c1)c1cc4c(cc1c(=O)n3CC2)OCO4`, the outcome was inactive.
On to `C[n+]1c(-c2ccc(/C=N/Nc3ccnc(N/N=C/c4ccc(-c5cn6ccccc6[n+]5C)cc4)n3)cc2)cn2ccccc21`, for which the pEC50 is 5.33 and the negative logarithm of the IC50 (pIC50) is 5.01.
For the molecule `CC1(C)OC(=C(C#N)C#N)C(C#N)=C1/C=C/c1ccncc1`, the pEC50 was less than 3.82 and the negative-log IC50 (pIC50) is 6.09.
For `CCN(CC)c1ccc2c(-c3ccccc3C(=O)O)c3ccc(=[N+](CC)CC)cc-3oc2c1`, the pEC50 was less than 4.00; the negative logarithm of the IC50 (pIC50) is 5.04 and 4.87.
Regarding `COCCOCOC(C)(C)[C@H](CCOC(C)=O)O[Si](c1ccccc1)(c1ccccc1)C(C)(C)C`, the outcome was inactive.
Turning to `Cc1ncc(CO)c(CO)c1S`, the pEC50 was less than 3.70 and the pIC50 is less than 3.70.
As to `O=c1[nH]c(Nc2ccc(Br)c(C(F)(F)F)c2)nc2nc[nH]c12`, the pEC50 is less than 3.82 and the pIC50 was 4.55.
On the same counts, the results for `CO/C=C1\CCC2c3c(c4ccccc4n3C)CC1N2Cc1ccccc1` (centres undefined) are less than 4.84 and 5.09.
In the case of `Cc1ccc(-c2n[nH]c(CC#N)n2)cc1`, the pEC50 was less than 3.70 and the negative-log IC50 (pIC50) was less than 3.70.
As for `CC(=O)c1ccc2c(ccc(=O)n2C)c1`, the pEC50 was less than 3.33 and the pIC50 is 3.97.
On the same counts, the results for `C1=Nc2ccccc2/C1=C/c1c[nH]c2ccccc12` are 7.20 and less than 3.70.
Take `CC(C)(C)c1cc(N=O)cc(C(C)(C)C)c1O`: the pEC50 is less than 3.70 and the pIC50 is 4.73.
As to `COC(=O)CN(CC(=O)NCCCBr)C1CCCCC1N(CC(=O)OC)CC(=O)OC` (centres undefined), the pEC50 is less than 3.70 and the negative-log IC50 (pIC50) is less than 3.70.
For `Clc1ccc(C2=Nc3ccccc3SC(c3ccc(Cl)c(Cl)c3)C2)c(Cl)c1` (centres undefined), the pEC50 is less than 4.80 and the pIC50 is less than 4.80.
Take `O=C1/C(=C/c2cccc([N+](=O)[O-])c2)COc2ccccc21`: the pEC50 is less than 4.89 and the pIC50 is 5.82.
Regarding `CCCCCCCCCCCCCC(=O)NO`, the pEC50 is less than 4.69 and the pIC50 was less than 4.69.
Turning to `Nc1ccc2nc(NCc3ccc(F)cc3)cnc2c1`, the pEC50 was less than 3.03 and the pIC50 is 4.08.
In the case of `COC(=O)C1=C(c2ccc3c(c2)OCO3)OC(c2ccc3c(c2)OCO3)C1` (centres undefined), the outcome was inactive.
As to `[C-]#[O+].[C-]#[O+].[C-]#[O+].[C-]#[O+].[C-]#[O+].[C-]#[O+].[Fe].[Fe].c1ccc([P-]c2ccccc2[P-]c2ccccc2)cc1` (centres undefined), the pEC50 is less than 5.74 and the pIC50 is less than 5.74.
`O=Nc1c(-c2ccccc2)nc2cc(-c3ccccc3)[nH]n12`: the pEC50 was less than 4.74 and the pIC50 was less than 4.74.
As to `Cn1c(=O)nc2n(-c3ccc(Cl)cc3)c(-c3ccccc3)c(-c3ccccc3)nc-2c1=O`, the outcome was inactive.
In the case of `O=C1NNC2NC(=O)C3(NN2C1=O)c1ccccc1-c1ccccc13` (centres undefined), the pEC50 was less than 4.00 and the negative-log IC50 (pIC50) was less than 4.00.
For the molecule `BrCCC[P+](c1ccccc1)(c1ccccc1)c1ccccc1`, the pEC50 is less than 4.70 and the negative-log IC50 (pIC50) was 6.04.
As to `COc1ccccc1NC(=O)C1=C(C)NC(C)=C(C(=O)Nc2ccccc2OC)C1C1=CC=COC1`, the pEC50 is less than 4.83 and the pIC50 is less than 4.83.
As for `O=C(/C=C/c1ccccc1)c1cccs1`, the pEC50 is less than 3.70 and the negative-log IC50 (pIC50) is 5.43.
For `CC(=O)OCC1OC(Nc2[nH]c(=O)[nH]c(=O)c2N=O)C(OC(C)=O)C(OC(C)=O)C1OC(C)=O` (centres undefined), in that order: less than 3.70 and less than 3.70.
Turning to `CN1CC(c2ccccc2)=Cc2c1ccc(N)c2N=N`, the pEC50 was less than 3.70 and the negative-log IC50 (pIC50) is less than 3.70.
Turning to `COc1cc(O)c2c(=O)c(OC)c(-c3ccc(OC)c(OC)c3)oc2c1`, the result was inactive.
For the molecule `CS(=O)(=O)CCOC(=O)ON1C(=O)CCC1=O`, the pEC50 was less than 3.70 and the pIC50 is 4.57.
As to `COc1cccc(C2c3cc4c(cc3OC(Nc3ccccc3)C2C)OCO4)c1O` (centres undefined), the pEC50 is less than 3.70 and the negative-log IC50 (pIC50) is 5.45.
Consider `C=CCN1C(=O)C/C(=C2/CCC(=O)N2CC=C)C1=O`, for which the pEC50 is less than 3.02 and the negative logarithm of the IC50 (pIC50) was less than 3.02.
Regarding `O=C1C=Cc2ccccc2/C1=C/c1[nH]c(=O)[nH]c1O`, the pEC50 was less than 3.70 and the negative-log IC50 (pIC50) is 4.79.
For the molecule `CCN(CCO)CC1COc2ccccc2O1` (centres undefined), the pEC50 is less than 3.70 and the pIC50 was less than 3.70.
Take `CCN(CC)CCn1c(=O)c2cccnc2n2c3c(=O)n(C)c(=O)n(C)c3nc12`: the pEC50 is less than 3.89 and the pIC50 is 4.22.
In the case of `CC(=O)Oc1cc2c(cc1OCC(F)(F)F)[C@H]1CC[C@]3(C)[C@@H](OC(C)=O)CC[C@H]3[C@@H]1CC2=O`, the pEC50 is less than 3.70 and the pIC50 was 4.65.
On to `OC(c1cc(C(O)(C(F)(F)F)C(F)(F)F)ncn1)(C(F)(F)F)C(F)(F)F`, for which the pEC50 is less than 3.70 and the negative-log IC50 (pIC50) was 3.78.
On to `O=C1CSCC(=O)O1`, for which the pEC50 is less than 2.72 and the negative logarithm of the IC50 (pIC50) is less than 2.72.
For `Cn1cc(-c2ccc3c4ccccc4n(C)c3c2)c2ccccc21`, the pEC50 is less than 5.06 and the pIC50 is less than 5.06.
Turning to `CC(C)N1CCN(C(C)C)CCN(C(C)C)CC1.[O]=[Mo](=[O])=[O]`, the pEC50 is less than 4.00 and the negative-log IC50 (pIC50) is 4.12.
Consider `COc1ccc(Oc2cc(CC3c4cc(OC)c(OC)cc4CCN3C)c([N+](=O)[O-])cc2OC)cc1OC` (centres undefined), for which the outcome was inactive.
`CCCOC(=O)C(F)C(Br)C(=O)OCCC` (centres undefined): the pEC50 is less than 3.70 and the pIC50 was 5.50.
Take `COc1ccc2nc3nc(-c4ccccc4)c(-c4ccccc4)nc3nc2c1`: the pEC50 was 7.09 and the negative logarithm of the IC50 (pIC50) is 5.40.
Regarding `N#Cc1ccc(C2Oc3ccc(Cl)cc3C=C2[N+](=O)[O-])cc1` (centres undefined), the pEC50 was less than 3.70 and the negative-log IC50 (pIC50) was 6.01.
Turning to `Cc1ccc(S(=O)(=O)N2CCC2c2ccccc2)cc1` (centres undefined), the result was inactive.
As for `Oc1cc(O)c2c(c1)O[C@@H](c1ccc(O)c(O)c1)[C@H](O)C2`, the pEC50 is less than 3.70 and the pIC50 is less than 3.70.
On to `Cc1nnc2nc(-c3ccccc3)nc(-c3ccccc3)n12`, for which the pEC50 is less than 3.70 and the negative logarithm of the IC50 (pIC50) is less than 3.70.
Turning to `Cc1ccc(NC2=NCCS2)c(C)c1`, the pEC50 was less than 3.70 and the pIC50 is less than 3.70.
For the molecule `COc1cc(/C=C2\CC/C(=C\c3cc(OC)c(O)c(OC)c3)C2=O)cc(OC)c1O`, the pEC50 was less than 3.70 and the pIC50 is 5.99.
Take `COc1cc(-c2oc3c(Cl)cc(Cl)cc3c(=O)c2O)cc(OC)c1OC`: the pEC50 is less than 3.70 and the pIC50 is 4.42.
For the molecule `CSc1ncnc2c1ncn2CCC(=O)O`, the pEC50 was less than 3.70 and the pIC50 is less than 3.70.
Regarding `CC1Cc2c(N)nc(NN)nc2NC1=O` (centres undefined), the result was inactive.
In the case of `COc1ccc2c(c1OC)C(C=C(c1ccccc1)c1ccccc1)CN(C)C2` (centres undefined), the pEC50 is less than 4.03 and the pIC50 is 4.80.
